This test addresses endothelin converting enzyme (Oryctolagus cuniculus). The test can be described thus: Inhibition of endothelin converting enzyme in an RIA assay using big ET-1 as substrate (value corresponds to <25% inhibition when assayed at a 100 uM screening concentration).

Structures are written as SMILES.

The IC50 is the midpoint of a concentration-inhibition curve. Regarding `CC(C)C[C@H](NP(=O)(O)OC1CCCCC1)C(=O)N[C@@H](Cc1c[nH]c2ccccc12)C(=O)O` [2-[2-(Cyclohexyloxy-hydroxy-phosphorylamino)-4-methyl-pentanoylamino]-3-(1H-indol-3-yl)-propionic acid], the IC50 was 48 µM.

Take `CC(C)C[C@H](NP(=O)(O)Cc1ccccc1)C(=O)N[C@@H](Cc1c[nH]c2ccccc12)C(=O)O` [2-[2-(Hydroxy-benzyl-phosphorylamino)-4-methyl-pentanoylamino]-3-(1H-indol-3-yl)-propionic acid]: the IC50 was found to be 61 µM. Under `CCOP(=O)(O)N[C@@H](CC(C)C)C(=O)N[C@@H](Cc1c[nH]c2ccccc12)C(=O)O` [2-[2-(Ethoxy-hydroxy-phosphorylamino)-4-methyl-pentanoylamino]-3-(1H-indol-3-yl)-propionic acid] stands 109 µM.

Source of the values: BindingDB's records for doi:10.1021/jm00053a023 (Monsanto, 1993).
